Assay results as given in patent US8609413B2, “Neurons, astrocytes and oligodendrocytes differentiated from a mammalian pluripotent or neural stem cells exposed to a pyridine deriviative” (Research Development Foundation, priority 2007, dated 2013).

Experiments:
mouse ES cells = details: literature reports; cited from earlier work
human ES cells = experiment: TWS119 tested by the inventors on human ES cells; assay type: cell-based
[1] = system: human ESC-derived NPC / ESC aggregates; experiment: Air/liquid interface three-dimensional culture with added factors; assay type: cell-based; details: exogenously added factor
Source text: Air/liquid interface expansion/differentiation of NPC may be performed via the following protocol. One or more rosettes-enriched clusters may be manually removed and multiple clusters (e.g., about 5-10 clusters) may be plated on a hydrophilic polytetrafluoroethylene (PTFE) membrane (e.g., 6 mm diameter, 0.4 μm, BioCell-Interface, La Chaux-de-Fonds, Switzerland). This membrane may be deposited on a Millicell®-CM (0.4 μm) Culture Plate Insert (Millipore) (FIG. 5A). N2 medium may preferably be added (e.g., about 1 ml) underneath the membrane insert.
Air/liquid interface expansion/differentiation of NPC. Rosettes-enriched cluster were manually removed and 5-10 clusters were plated on a hydrophilic polytetrafluoroethylene (PTFE) membrane (6 mm diameter, 0.4 μm, BioCell-Interface, La Chaux-de-Fonds, Switzerland). This membrane was deposited on a Millicell®-CM (0.4 μm) Culture Plate Insert (Millipore) (FIG. 1). One ml of N2 medium was added underneath the membrane insert.

| Compound | neuronal differentiation of mouse ES cells (mouse ES cells) | cell growth (human ES cells) | neuronal differentiation (human ES cells) | phenotype of engineered tissue [1] | size of engineered tissue [1] |
| --- | --- | --- | --- | --- | --- |
| Cc1cccc(C#Cc2ccccc2)n1 [MPEP, 2-methyl-6-(phenylethynyl)-pyridine] | enhances their differentiation towards neurons | – | – | – | – |
| Nc1cccc(-c2cc3c(Oc4cccc(O)c4)ncnc3[nH]2)c1 [TWS119] | enhanced neuronal differentiation of mouse ES cells | decreased cell growth | only small effect on neuronal differentiation | – | – |
| EGF: epidermal growth factor | – | – | – | did not induce phenotypic changes | moderate increase |
| FGF-2: basic fibroblast growth factor, exogenously added growth factor | – | – | – | did not induce phenotypic changes | moderate increase |
